In the experiment the target is IDO1 (Homo sapiens, UniProt P14902). In words: IDO1 Cellular Assay in HeLa Cells Stimulated with IFNγ. It is filed as cell-based. Also on record: endogenous in cells; host or cells: HeLa cells stimulated with IFNγ. The conditions noted are these: HeLa cells stimulated with IFNγ 100 ng/mL, 300 uM L-tryptophan, about 48 hours, fluorescence readout; read-out: IDO1 HELA Cell Assay, IC50. How it is done: Biological Assays IDO1 Cellular Assay in HeLa Cells Stimulated with IFNγ HeLa cells were cultured in complete HeLa culture medium (90% EMEM, 10% heat-inactivated fetal bovine serum) and expanded to about 1×10^9 cells. The cells were then collected and frozen down at 1×10^7 cells/vial in 1 mL frozen medium (90% complete HeLa culture medium, 10% DMSO). Compounds to be tested were serially diluted in ten 3-fold steps in DMSO starting from 10 mM DMSO stocks in Echo low volume plate(s). Compound dilutions or DMSO alone were then dispensed from the dilution plate(s) into Greiner black 384-well assay plate(s) (catalog #781086, 50 nL/well) using an Echo 550 acoustic liquid handler (Labcyte). Frozen HeLa cells were thawed and transferred into HeLa assay medium (99% complete HeLa culture medium, 1% Pen/Strep) with 20 mL medium/vial of cells. The cells were spun down at 250 g in a table top centrifuge for 5 min and suspended in same volume of HeLa assay medium. The cells were then counted and adjusted to a density of 2×10^5 cells/mL in HeLa assay medium. Sterile L-tryptophan were added to the cells with final concentration of 300 uM L-tryptophan. A small aliquot (2 mL/plate) of HeLa cells were set aside and were not treated with IFNγ, to serve as the Max-E control. The rest of HeLa cells were added with sterile IFNγ (Cat #285-IF, R & D systems) with a final concentration of 100 ng/mL. HeLa cells with and without IFNγ were dispensed to the respective wells of 384-well assay plates containing the compounds. The plates were incubated for about 48 hours at a 37° C., 5% CO2 incubator. Afterwards, 12 μL of 0.5 M methyl isonipecotate in dimethyl sulfoxide were added into each well and the plates were sealed and incubated at 37° C. without CO2 overnight. The plates were centrifuged for 1 min at 200×g. The resulting fluorescence was measured in a Spectramax plate reader (Molecular Devices) with a 400 nm excitation filter and a 510 nm emission filter. The fluorescence intensity of each well was corrected for the background observed in wells with non-IFNγ-treated cells and was expressed as a fraction of the intensity observed in wells of IFNγ-treated cells and DMSO only. Potencies were calculated by […] least squares fit to the four parameter logistic IC50 equation.
Chain of IDO1 (P14902 whole entry): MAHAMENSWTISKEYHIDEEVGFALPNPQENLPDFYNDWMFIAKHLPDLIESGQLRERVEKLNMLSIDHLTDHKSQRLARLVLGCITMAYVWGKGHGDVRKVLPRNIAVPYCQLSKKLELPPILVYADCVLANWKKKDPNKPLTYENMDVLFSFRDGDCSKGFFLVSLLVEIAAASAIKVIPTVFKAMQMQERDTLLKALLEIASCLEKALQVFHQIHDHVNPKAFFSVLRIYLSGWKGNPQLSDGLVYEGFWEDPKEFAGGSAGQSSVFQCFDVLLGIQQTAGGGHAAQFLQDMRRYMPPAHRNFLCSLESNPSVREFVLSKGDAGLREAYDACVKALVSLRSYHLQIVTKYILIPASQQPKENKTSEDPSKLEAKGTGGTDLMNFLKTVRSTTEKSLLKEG
The IC50 is the concentration needed to halve the response being measured. For the compound `C[C@H](NC(=O)c1ccc(F)cc1)c1ccc2c(n1)[C@@H]1C[C@@H]1CN2C(=O)OC1CC1` [Example 26, cyclopropyl (6aS,7aR)-2-((S)-1-(4-fluorobenzamido)-ethyl)-6,6a,7,7a-tetrahydro-5H-cyclopropa[c][1,5]-naphthyridine-5-carboxylate], the IC50 turned out to be 35 nM.

As for `Cc1nccc(N2C[C@H]3C[C@H]3c3nc([C@]4(NC(=O)c5ccc(F)cc5)C[C@@H]4C)ccc32)n1` [Example 46, 4-fluoro-N-((1S,2S)-2-methyl-1-((6aS,7aR)-5-(2-methyl-pyrimidin-4-yl)-6,6a,7,7a-tetra-hydro-5H-cyclopropa[c][1,5]-naphthyridin-2-yl)cyclopropyl)-benzamide], the IC50 was 24.4 nM.

For `COC(=O)c1nccc(N2CC3CC3c3nc(C4(NC(=O)c5ccc(F)cc5)CC4)ccc32)n1` (stereo not shown) [Example 17, methyl 4-(2-(1-(4-fluorobenzamido)cyclopropyl)-6,6a,7,7a-tetrahydro-5H-cyclopropa[c][1,5]naphthyridin-5-yl)pyrimidine-2-carboxylate], the IC50 amounted to 9.02 nM.

On to `C[C@H](NC(=O)c1ccc(F)cc1)c1ccc2c(n1)[C@H]1C[C@H]1CN2C(=O)OC1CC1` [Example 25, cyclopropyl (6aR,7aS)-2-((S)-1-(4-fluorobenzamido)-ethyl)-6,6a,7,7a-tetrahydro-5H-cyclopropa[c][1,5]-naphthyridine-5-carboxylate], for which the IC50 came out at 15.4 nM.

Regarding `O=C(C1CC1)N1CC2CC2c2cc(C3(C(=O)Nc4ccc(F)cc4)CCC3)ccc21` (single isomer, unassigned) [Example 3, 1-(3-(cyclopropanecarbonyl)-1a,2,3,7b-tetrahydro-1H-cyclopropa[c]quinolin-6-yl)-N-(4-fluorophenyl)cyclobutanecarboxamide], the IC50 turned out to be 44 nM.

Consider `O=C(NC1(c2ccc3c(n2)C2CC(C2)N3C(=O)OCc2ccccc2)CC1)c1ccc(F)cc1` [Example 49, benzyl 6-(1-(4-fluorobenzamido)cyclopropyl)-3,4-dihydro-2,4-methano-1,5-naphthyridine-1(2H)-carboxylate], for which the IC50 worked out at 20.4 nM.

“4-fluoro-N-(2-((6aS,7aR)-5-(2-methylpyrimidin-4-yl)-6,6a,7,7a-tetrahydro-5H-cyclopropa[c][1,5]naphthyridin-2-yl)propan-2-yl)benzamide [Example 31]”: the concentration for half-maximal inhibition (IC50) came to 80.6 nM.

As for `O=C(NC1(c2ccc3c(n2)[C@@H]2C[C@@H]2CN3C(=O)OC2CCOCC2)CC1)c1ccc(F)cc1` [Example 23, tetrahydro-2H-pyran-4-yl (6aS,7aR)-2-(1-(4-fluoro-benzamido)cyclopropyl)-6,6a,7,7a-tetrahydro-5H-cyclopropa[c][1,5]-naphthyridine-5-carboxylate], the IC50 is 17 nM.

For `Cc1nccc(N2c3ccc(C4(NC(=O)c5ccc(F)cc5)CC4)nc3C3CC2C3C)n1` (stereo not shown) [Example 48, 4-fluoro-N-(1-(3-methyl-1-(2-methylpyrimidin-4-yl)-1,2,3,4-tetrahydro-2,4-methano-1,5-naphthyridin-6-yl)cyclopropyl)benzamide], the IC50 amounted to 76.3 nM.

`O=C(NC1(c2ccc3c(n2)C2CC(C2)N3C(=O)OC2CC2)CC1)c1ccc(F)cc1` [Example 50, cyclopropyl 6-(1-(4-fluorobenzamido)cyclopropyl)-3,4-dihydro-2,4-methano-1,5-naphthyridine-1(2H)-carboxylate]: the IC50 is 5.76 nM.

Consider `Cc1nccc(N2CC3CC3c3nc(C(C)(C)NC(=O)c4ccc(F)cc4)ccc32)n1` (racemic) [Example 29, 4-fluoro-N-(2-(5-(2-methylpyrimidin-4-yl)-6,6a,7,7a-tetrahydro-5H-cyclopropa[c][1,5]naphthyridin-2-yl)propan-2-yl)benzamide], for which the IC50 was determined as 90 nM.

For `CC(C)(C)OC(=O)N1CC2CC2c2nc(C3(NC(=O)c4ccc(F)cc4)CC3)ccc21` (stereo not shown) [Example 10, tert-butyl 2-(1-(4-fluorobenzamido)cyclopropyl)-6,6a,7,7a-tetrahydro-5H-cyclopropa[c][1,5]naphthyridine-5-carboxylate], the IC50 amounted to 96.7 nM.

On to `CC(C)(NC(=O)c1ccc(F)cc1)c1ccc2c(n1)[C@H]1C[C@H]1CN2C(=O)OC1CC1` (single isomer, unassigned) [Example 34], for which the IC50 was found to be 221 nM.

For `Cc1nccc(N2C[C@@H]3C[C@@H]3c3nc([C@@]4(NC(=O)c5ccc(F)cc5)C[C@@H]4C)ccc32)n1` [Example 40, 4-fluoro-N-((1R,2S)-2-methyl-1-((6aR,7aS)-5-(2-methyl-pyrimidin-4-yl)-6,6a,7,7a-tetra-hydro-5H-cyclopropa[c][1,5]-naphthyridin-2-yl)cyclopropyl)-benzamide], the IC50 worked out at 2.83 nM.

In the case of `Cc1nccc(N2C[C@@H]3C[C@@H]3c3nc([C@]4(NC(=O)c5ccc(F)cc5)C[C@@H]4C)ccc32)n1` [Example 42, 4-fluoro-N-((1S,2S)-2-methyl-1-((6aR,7aS)-5-(2-methyl-pyrimidin-4-yl)-6,6a,7,7a-tetra-hydro-5H-cyclopropa[c][1,5]-naphthyridin-2-yl)cyclopropyl)-benzamide], the IC50 was 3.17 nM.

Regarding `Cc1nccc(N2C[C@@H]3C[C@@H]3c3nc(C4(NC(=O)c5ccc(F)cc5)CC4)ccc32)n1` (stereo in doubt) [Example 12, 4-fluoro-N-(1-(5-(2-methylpyrimidin-4-yl)-6,6a,7,7a-tetrahydro-5H-cyclopropa[c][1,5]naphthyridin-2-yl)cyclopropyl)benzamide], the IC50 amounted to 1.91 nM.

For `CC(C)(C)OC(=O)N1C[C@@H]2C[C@@H]2c2nc(C3(NC(=O)c4ccc(F)cc4)CC3)ccc21` [Example 52, tert-butyl (6aR,7aS)-2-(1-(4-fluorobenzamido)cyclopropyl)-6,6a,7,7a-tetrahydro-5H-cyclo-propa[c][1,5]naphthyridine-5-carboxylate], the IC50 was found to be 96.6 nM.

`Cc1nccc(N2c3ccc(C4(NC(=O)c5ccc(F)cc5)CC4)nc3C3CC2C3)n1` [Example 51, 4-fluoro-N-(1-(1-(2-methylpyrimidin-4-yl)-1,2,3,4-tetrahydro-2,4-methano-1,5-naphthyridin-6-yl)cyclopropyl)benzamide]: the IC50 is 8.08 nM.

`Cc1nccc(N2C[C@@H]3C[C@@H]3c3nc([C@]4(NC(=O)c5ccc(F)cc5)C[C@H]4C)ccc32)n1` [Example 39, 4-fluoro-N-((1S,2R)-2-methyl-1-((6aR,7aS)-5-(2-methyl-pyrimidin-4-yl)-6,6a,7,7a-tetra-hydro-5H-cyclopropa[c][1,5]-naphthyridin-2-yl)cyclopropyl)-benzamide]: the IC50 stood at 10.5 nM.

As for `CC(NC(=O)c1ccc(F)cc1)c1ccc2c(n1)C1CC1CN2C(=O)OC(C)(C)C` (stereo not shown) [Example 24, tert-butyl 2-(1-(4-fluorobenzamido)ethyl)-6,6a,7,7a-tetrahydro-5H-cyclopropa[c][1,5]naphthyridine-5-carboxylate], the IC50 turned out to be 20.9 nM.

Consider `CC(C)(C)OC(=O)N1CC2CC2c2nc(C(C)(C)NC(=O)c3ccc(F)cc3)ccc21` (stereo not shown) [Example 55, tert-butyl 2-(2-(4-fluorobenz-amido)propan-2-yl)-6,6a,7,7a-tetrahydro-5H-cyclopropa[c]-[1,5]naphthyridine-5-carboxylate], for which the IC50 stood at 16.6 nM.

`Cc1nccc(N2c3ccc(C4(NC(=O)c5ccc(F)cc5)CC4)cc3C3CC32)n1` (single isomer, unassigned) [Example 9, 4-fluoro-N-(1-(2-(2-methylpyrimidin-4-yl)-1,1a,2,6b-tetrahydrocyclopropa[b]indol-5-yl)cyclopropyl)benzamide]: the IC50 turned out to be 8.21 nM.

As to `Cc1nccc(N2C[C@H]3C[C@H]3c3nc(C4(NC(=O)c5ccc(F)cc5)CC4)ccc32)n1` (stereo in doubt) [Example 13, 4-fluoro-N-(1-(5-(2-methylpyrimidin-4-yl)-6,6a,7,7a-tetrahydro-5H-cyclopropa[c][1,5]naphthyridin-2-yl)cyclopropyl)benzamide], the IC50 is 1.07 nM.

For `O=C(NC1(c2ccc3c(n2)C2CC2CN3)CC1)c1ccc(F)cc1` (stereo not shown) [Example 11, 4-fluoro-N-(1-(6,6a,7,7a-tetrahydro-5H-cyclopropa[c][1,5]naphthyridin-2-yl)cyclopropyl)benzamide], the IC50 was found to be 2300 nM.

For `Cc1nccc(N2C[C@H]3C[C@H]3c3nc([C@]4(NC(=O)c5ccc(F)cc5)C[C@H]4C)ccc32)n1` [Example 44, 4-fluoro-N-((1S,2R)-2-methyl-1-((6aS,7aR)-5-(2-methyl-pyrimidin-4-yl)-6,6a,7,7a-tetra-hydro-5H-cyclopropa[c][1,5]-naphthyridin-2-yl)cyclopropyl)-benzamide], the IC50 came to 4.34 nM.
